Tests used:
3T3-L1 cells = test: Test 4: lipolysis test, glycerol released into culture supernatant of differentiated adipocytes; format: cell-based, Mouse; settings: for amount of released glycerol, comparison with control: against Comparative Example 4 (0.1% ethanol), one-way ANOVA, Dunnett's test; for control ratio: amount of glycerol relative to medium of Comparative Example 4, Average: culture 2 days, 0.1% ethanol, 0.1 µM noradrenaline, ethyl caproate 0/0.1/1/10 ppm in Comparative Example 5/Examples 6/7/8
Description: In the present test, the lipolysis-promoting effect of the promoter of the present embodiment was tested by quantifying glycerol released into culture supernatant through decomposition of fat accumulated in adipocytes. Mouse embryonic 3T3-L1 cells, which are progenitor cells of adipocytes and were used in the present test, were induced to differentiate to form adipocytes. The present test was carried out in accordance with a method described in "Effects of Quercetin Glucosides on Dietinduced Obesity in Mice - The Lipolytic Activity of Quercetin -" (Tateishi et al., Japanese Pharmacology & Therapeutics 2009; 37(2): 123-131). The specific testing method of the present test and the results of the test are shown in the following.
In the present test, first, 3T3-L1 cells were suspended in Dulbecco's Modified Eagle medium (manufactured by FUJIFILM Wako Pure Chemical Corporation) (hereinafter, also referred to as "DMEM medium") to which penicillin-streptomycin (manufactured by Thermo Fisher Scientific, Inc.) and fetal bovine serum (manufactured by Sigma-Aldrich Co. LLC) had been added to reach concentrations of 100 Unit/mL, 100 µg/mL, and 10%, respectively, and seeded in a 12-well plate.
The 3T3-L1 cells were cultured under conditions of 5% CO2 and 37°C until the cells became confluent (a state in which cells are totally covering the surface of a culture vessel). Two days after becoming confluent, the medium was exchanged with a medium obtained by adding dexamethasone (manufactured by NACALAI TESQUE, INC.), 3-isobutyl-1-methylxanthine (manufactured by NACALAI TESQUE, INC.), and insulin (manufactured by NACALAI TESQUE, INC.) to DMEM medium to reach concentrations of 0.25 µM, 0.5 mM, and 10 µg/mL, respectively. Thereafter, the 3T3-L1 cells were cultured at 5% CO2 and 37°C for 2 days to induce the cells to differentiate into adipocytes.
After the induction of differentiation, medium exchange with a medium obtained by adding insulin to DMEM medium to reach a concentration of 5 µg/mL was performed every 2 or 3 days, and differentiation was maintained by culturing at 5% CO2 and 37°C for 12 days in total. Thereafter, a medium is prepared as a test medium by adding penicillin-streptomycin (manufactured by Thermo Fisher Scientific, Inc.) and fetal bovine serum (manufactured by Sigma-Aldrich Co. LLC) to DMEM medium free of phenol red (1.0 g/L glucose) (manufactured by NACALAI TESQUE, INC.) to reach concentrations of 100 Unit/mL, 100 µg/mL, and 10%, respectively, and components shown in Table 4 were added to the test medium to reach concentrations shown in Table 4. The medium for the 3T3-L1 cells after induction of differentiation was exchanged with a medium to which components of any of Comparative Examples 4, 5 or Examples 6 to 8 had been added, and the 3T3-L1 cells were cultured at 5% CO2 and 37°C for 2 days.
Ethyl caproate manufactured by Tokyo Chemical Industry Co., Ltd. was used for the ethyl caproate, ethanol manufactured by FUJIFILM Wako Pure Chemical Corporation was used for the ethanol, and noradrenaline manufactured by NACALAI TESQUE, INC. was used for the noradrenaline.
After culturing for 2 days, the culture supernatant was collected, and glycerol released into the culture supernatant was quantified with a Glycerol Assay kit (Cell-Based) (manufactured by Abcam). The ratio of the amount of glycerol in each medium to which the components of any of Comparative Example 5 and Examples 6 to 8 had been added relative to the amount of glycerol in the medium to which the component of Comparative Example 4 had been added (hereinafter, referred to as "control ratio") was determined to obtain the average ± standard error.
In the present test, statistical test was carried out by multiple comparison test with one-way analysis of variance (one-way ANOVA) followed by Dunnett's test. Significance levels of p < 0.05 were each determined to be a significant difference. These analyses were all performed with SPSS version 23 (manufactured by SPSS).

TRPA1 = target: T1, TRPA1 (Homo sapiens, UniProt O75762); test: Test 5: TRPA1 activity test, calcium imaging in cells with forced expression of TRPA1; format: cell-based
T1 construct: expressed in transfected cells; host or cells: HEK293T cells, transient transfection with Lipofectamine 2000
Description: In the present test, the contribution of the lipid metabolism promoter of the present embodiment to TRPA1 activity was examined by checking the activation of the temperature-sensitive ion channel TRPA1 with a calcium imaging method. The specific testing method of the present test and the results of the test are shown in the following. […]
(§1) Ethyl caproate was added to HEPES buffer (10 mM HEPES, 130 mM NaCl, 5 mM KCl, 10 mM glucose, 2 mM CaCl2·2H2O, 1.2 mM MgCl2·6H2O, pH = 7.40), and thus a test solution of Example 9 containing ethyl caproate in a concentration of 255 ppm was obtained. […] Measurement of fluorescence intensity for the cells with forced expression of TRPA1 was initiated, and, 20 seconds thereafter, 50-µL portions of each of the test solutions prepared were added to three wells. After the lapse of a predetermined period of time, the measurement of fluorescence intensity was completed, and ratios of fluorescence intensity at each time after addition of a test solution as the average of fluorescence intensity before addition of a test solution was assumed as 1 (hereinafter, also referred to as "RFU (relative fluorescence units)") were determined from measurements of fluorescence intensity. Further, change rates in RFU before and after addition of a test solution (hereinafter, also referred to as "ΔRFU") were determined at each time after addition of a test solution. […]

[1] = system: HEK293T cells without transfer of the TRPA1 gene; test: Test 5: TRPA1 activity test, reference in non-transformed cells; format: cell-based, human; settings: ethyl caproate 255 ppm test solution, 100 ppm in well
Description: In the present test, first, human embryonic HEK293T cells were first suspended in DMEM medium to which penicillin-streptomycin (manufactured by Thermo Fisher Scientific, Inc.) and fetal bovine serum (manufactured by Sigma-Aldrich Co. LLC) were added to reach concentrations of 100 Unit/mL, 100 µg/mL, and 10%, respectively, seeded in a 96-well plate at a volume of 100 µL/well, and cultured under conditions of 5% CO2 and 37°C until a cell density reached 70 to 90%.
as §1, with “intensity.” for “intensity. Further, change rates in RFU before and after addition of a test solution (hereinafter, also referred to as "ΔRFU") were determined at each time after addition of a test solution.”

T1 sequence (O75762 whole entry): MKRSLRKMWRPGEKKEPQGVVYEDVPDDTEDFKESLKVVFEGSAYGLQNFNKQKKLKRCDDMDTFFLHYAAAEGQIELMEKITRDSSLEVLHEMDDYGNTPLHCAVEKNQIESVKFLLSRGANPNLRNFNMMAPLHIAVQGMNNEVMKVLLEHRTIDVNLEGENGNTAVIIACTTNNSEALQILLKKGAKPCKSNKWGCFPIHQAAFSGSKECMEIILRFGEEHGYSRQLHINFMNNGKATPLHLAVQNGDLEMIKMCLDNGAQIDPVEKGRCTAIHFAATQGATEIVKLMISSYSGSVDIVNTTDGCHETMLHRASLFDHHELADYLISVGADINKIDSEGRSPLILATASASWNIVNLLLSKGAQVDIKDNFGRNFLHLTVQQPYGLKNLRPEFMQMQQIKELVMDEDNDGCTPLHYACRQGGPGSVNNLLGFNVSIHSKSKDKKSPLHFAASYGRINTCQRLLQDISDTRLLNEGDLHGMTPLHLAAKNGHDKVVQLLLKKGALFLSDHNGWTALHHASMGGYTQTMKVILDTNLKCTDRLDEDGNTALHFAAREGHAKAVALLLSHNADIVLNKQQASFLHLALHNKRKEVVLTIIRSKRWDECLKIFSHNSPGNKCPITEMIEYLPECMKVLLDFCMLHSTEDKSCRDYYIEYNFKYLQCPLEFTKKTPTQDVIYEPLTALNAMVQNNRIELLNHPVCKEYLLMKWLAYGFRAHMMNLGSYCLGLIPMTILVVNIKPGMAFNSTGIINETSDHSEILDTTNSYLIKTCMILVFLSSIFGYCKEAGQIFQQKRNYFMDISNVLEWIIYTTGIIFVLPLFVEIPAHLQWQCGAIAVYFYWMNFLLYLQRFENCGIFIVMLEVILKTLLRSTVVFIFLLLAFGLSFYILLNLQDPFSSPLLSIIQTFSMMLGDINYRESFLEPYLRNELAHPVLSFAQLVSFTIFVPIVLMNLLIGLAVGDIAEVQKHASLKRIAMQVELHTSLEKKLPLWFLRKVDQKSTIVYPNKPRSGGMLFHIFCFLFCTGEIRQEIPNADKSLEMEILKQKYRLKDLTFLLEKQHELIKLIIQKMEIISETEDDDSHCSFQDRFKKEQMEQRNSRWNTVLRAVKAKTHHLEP

Row | cellular response after co-addition of the TRPA1 inhibitor HC03001 (TRPA1; cells with forced expression of TRPA1, Figure 11) | cellular response of cells with forced expression of TRPA1 (TRPA1; ethyl caproate 100 ppm in well, Figures 9 and 10) | Compound | amount of released glycerol, comparison with control (3T3-L1 cells) | control ratio: amount of glycerol relative to medium of Comparative Example 4, Average (3T3-L1 cells) | maximum value of ΔRFU after addition of test solution, Average [1]
1 |  |  | NC[C@H](O)c1ccc(O)c(O)c1 [Comparative Example 5, Noradrenaline, reference compound] | almost no difference in the amount of released glycerol | 1.002 | 
2 |  |  | CCCCCC(=O)OCC [Example 6, Ethyl caproate] |  | 1.063 | 
3 |  |  | CCCCCC(=O)OCC [Example 7, Ethyl caproate] | increasing tendency in the amount of released glycerol | 1.089 | 
4 |  |  | CCCCCC(=O)OCC [Example 8, Ethyl caproate] | significant increase in the amount of released glycerol | 1.118 | 
5 | disappeared | evoked cellular response | CCCCCC(=O)OCC [Example 9, Ethyl caproate] |  |  | 0.046

Reference: patent publication EP4023291A1, “FAT METABOLISM PROMOTER” (Asahi Group Holdings, Ltd., priority 2019, dated 2021)
